Molecules are shown by their SMILES.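 Assay format: 96-well plates, 48-hour exposure. GI50: concentration for 50% inhibition of growth.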 Activity calls are given as the source filed them. No stated cut-off is given here; in the data, active = GI50 up to about 1.1 µM and inactive = higher.

Common to all, as to assay: NCI anticancer screen, dose series, 48 h
In assay [1] the test system is SK-MEL-28.
The subject of assay [2] is OVCAR-8.
Assay [3] relates to NCI/ADR-RES.
Assay [4] deals with KM12.
For assay [5], the system named is A498.
The subject of assay [6] is LOX IMVI.
Assay [7] has as its system HOP-92.
The test system of assay [8] is ACHN.
Assay [9] deals with SF-268.
The test system of assay [10] is SNB-75.
Assay [11] concerns SK-OV-3.
The test system of assay [12] is MDA-MB-435.
Assay [13] relates to SF-295.
For assay [14], the system named is OVCAR-5.
For assay [15], the system named is UO-31.
Assay [16] relates to M14.
Assay [17] concerns OVCAR-4.
Assay [18] has as its system CAKI-1.
Assay [19] concerns SK-MEL-2.

On to `O=C1C(=C/C=C2/SC(c3ccccc3)(c3ccccc3)c3ccccc32)C(=O)c2ccccc21`, for which the GI50 in assay [1], in [2], in assay [3], in assay [4], in assay [5] and in assay [6] was > 100 µM (inactive) each time. Besides, the GI50 in [7], in assay [8], in assay [9], in assay [10], in [11] and in assay [12] was > 100 µM (inactive) each time. Further, the GI50 in [13], in assay [14], in assay [15], in [16], in assay [17] and in assay [18] was > 100 µM (inactive) throughout.

`COc1ccc2c(c1)C(=O)OCCC2`: the GI50 in assay [1], in assay [2], in [3], in [4], in assay [5] and in assay [7] was > 100 µM (inactive) throughout. Also, the GI50 was > 100 µM (inactive) in [8]; > 100 µM (inactive) in assay [9]; 54 µM (inactive) in assay [10]; > 100 µM (inactive) in assay [11]; > 100 µM (inactive) in assay [12]; > 100 µM (inactive) in [13]. For the same molecule, the GI50 was > 100 µM (inactive) in [14]; 26.7 µM (inactive) in [15]; > 100 µM (inactive) in assay [16]; > 100 µM (inactive) in assay [19]; > 100 µM (inactive) in assay [17]; > 100 µM (inactive) in [18].

With `COC(=O)C1=C(C)N2[C@H](C(=O)O)CS[C@@]2(C)[C@H](C(=O)OC)[C@H]1c1cccc([N+](=O)[O-])c1`, the GI50 was > 100 µM (inactive) in [1]; > 100 µM (inactive) in assay [2]; > 100 µM (inactive) in [3]; > 100 µM (inactive) in assay [4]; > 100 µM (inactive) in assay [5]; 54.5 µM (inactive) in [7]. Besides, the GI50 in [8], in [9], in assay [10], in assay [11], in [12] and in assay [13] was > 100 µM (inactive) in each case. Moreover, the GI50 in assay [14], in [15], in [16], in assay [19], in assay [17] and in [18] was > 100 µM (inactive) in each case.

For the molecule `COc1ccc(C2CC(C)(O)Oc3cc4c(cc32)OCO4)cc1` (stereo not given), the GI50 in assay [1] was 45.6 µM (inactive); in assay [2], 35 µM (inactive); in assay [3] it was 23.3 µM (inactive); in assay [4], 27.3 µM (inactive); in [5] it was 30.9 µM (inactive); in [6], 27.2 µM (inactive). Also, the GI50 is 28.4 µM (inactive) in assay [7]; 43.2 µM (inactive) in assay [8]; 35.8 µM (inactive) in assay [9]; 29.7 µM (inactive) in assay [10]; 7.14 µM (inactive) in [12]; 30.8 µM (inactive) in [13]. Besides, the GI50 in assay [14] was 55.7 µM (inactive); in assay [15], 37.1 µM (inactive); in [16] it was 36 µM (inactive); in assay [19] it was 15.8 µM (inactive); in assay [17], 38.6 µM (inactive); in assay [18], 41.7 µM (inactive).

With `CCOC(=O)N(C)C1(c2ccccc2)CCN(CCCC(=O)c2ccc(F)cc2)CC1`, the GI50 was 21 µM (inactive) in [1]; > 100 µM (inactive) in assay [2]; 47.8 µM (inactive) in assay [3]; 30.5 µM (inactive) in assay [4]; 36.5 µM (inactive) in [5]; 20.9 µM (inactive) in assay [6]. Also, the GI50 in assay [7] is 34.8 µM (inactive); in [8], 84.1 µM (inactive); in [9], 90.4 µM (inactive); in assay [11], > 100 µM (inactive); in assay [12], 23.9 µM (inactive); in assay [13] it was 42.4 µM (inactive). Besides, the GI50 in [14] was 49 µM (inactive); in assay [15], 0.0148 µM (active); in assay [16] it was 17.2 µM (inactive); in assay [19] it was 21.5 µM (inactive); in assay [17], 40.2 µM (inactive); in assay [18], 2.16 µM (inactive).

Take `OC1(c2ccccc2)C2CC=CC2C1(c1ccccc1)c1ccccc1` (stereo not given): the GI50 is 40.1 µM (inactive) in assay [1]; 40.2 µM (inactive) in [2]; 44.3 µM (inactive) in assay [3]; 20.6 µM (inactive) in [4]; 15.8 µM (inactive) in assay [5]; 18 µM (inactive) in assay [6]. Moreover, the GI50 was 33.3 µM (inactive) in assay [7]; 43.5 µM (inactive) in [8]; 31 µM (inactive) in [9]; 34.1 µM (inactive) in assay [10]; 38.9 µM (inactive) in assay [11]; 20.7 µM (inactive) in assay [12]. The GI50 in assay [13] was 34 µM (inactive); in assay [14] it was 60.8 µM (inactive); in assay [15] it was 31.1 µM (inactive); in [16], 32.7 µM (inactive); in assay [19], 12 µM (inactive); in assay [18], 17.1 µM (inactive).

As to `COC(=O)C(=O)C(C(=O)C(=O)Nc1ccc(Cl)c(Cl)c1)c1nc2ccc(C(=O)c3ccccc3)cc2nc1O` (stereo not given), the GI50 in assay [1] was 85.3 µM (inactive); in assay [2], 40.6 µM (inactive); in assay [3] it was 33.6 µM (inactive); in [4] it was 29 µM (inactive); in assay [5] it was > 100 µM (inactive); in [6], 59.3 µM (inactive). Moreover, the GI50 in [7] is > 100 µM (inactive); in [8] it was 46.5 µM (inactive); in assay [9] it was 51.4 µM (inactive); in [10], 28.3 µM (inactive); in [11] it was 97.3 µM (inactive); in assay [12] it was 35.4 µM (inactive). The GI50 in assay [13] is 49.4 µM (inactive); in assay [14] it was > 100 µM (inactive); in assay [15], 26.4 µM (inactive); in [16], 67.3 µM (inactive); in assay [19], 97.9 µM (inactive); in assay [18], 22.5 µM (inactive).

With `COc1ccc(-c2cn3c(nc4ccccc43)c(/C=C/c3cccs3)n2)cc1`, the GI50 in assay [1] is 80 µM (inactive); in [3] it was 13 µM (inactive); in assay [4], 11.9 µM (inactive); in assay [5] it was > 100 µM (inactive); in assay [6] it was 35.3 µM (inactive); in assay [7] it was 16.9 µM (inactive). Besides, the GI50 in assay [8] is > 100 µM (inactive); in [9], 59.2 µM (inactive); in [10] it was 52.6 µM (inactive); in [11], 75.2 µM (inactive); in [12] it was 4.28 µM (inactive); in assay [14], > 100 µM (inactive). Also, the GI50 in assay [15] is > 100 µM (inactive); in assay [16], 37.8 µM (inactive); in assay [19], 10.6 µM (inactive); in assay [17] it was 49.7 µM (inactive).

For `N#CC1C(=S)NC(c2ccccc2)=CC12CCCCC2` (stereo not given), the GI50 is 34.4 µM (inactive) in assay [1]; 32.1 µM (inactive) in assay [2]; 28.8 µM (inactive) in [3]; 22.9 µM (inactive) in assay [4]; 22.8 µM (inactive) in [5]; 18.6 µM (inactive) in [6]. In addition, the GI50 in [7] was 18.6 µM (inactive); in assay [8], 25.1 µM (inactive); in assay [9], 66.8 µM (inactive); in assay [10], 58.7 µM (inactive); in assay [12], 18.2 µM (inactive); in assay [14], 37.5 µM (inactive). Moreover, the GI50 is 25 µM (inactive) in assay [15]; 26.1 µM (inactive) in assay [16]; 24 µM (inactive) in assay [19]; 26.4 µM (inactive) in [17]; 47.3 µM (inactive) in [18].

As to `O=C(O)c1nc2ccc(Cl)cc2[nH]c1=O`, the GI50 in assay [1], in assay [2], in [3], in assay [4], in assay [5] and in assay [6] was > 100 µM (inactive) each time. Also, the GI50 in [7], in assay [8], in [9], in assay [11], in assay [12] and in assay [13] was > 100 µM (inactive) throughout. The GI50 in assay [14] was > 100 µM (inactive); in assay [15] it was 46.8 µM (inactive); in assay [16] it was > 100 µM (inactive); in assay [19], > 100 µM (inactive); in [17], > 100 µM (inactive); in assay [18], > 100 µM (inactive).

With `CN1c2ccccc2C2=C(c3ccccc3)CC[C@@H](C(=O)N3C4CC5CC[C@@]4(CS3(=O)=O)C5(C)C)[C@@H]21` (stereo not given in full), the GI50 in [1], in assay [2], in [3], in [4], in assay [5] and in assay [6] was > 100 µM (inactive) each time. The GI50 in assay [7], in assay [8], in assay [9], in assay [10], in assay [11] and in assay [12] was > 100 µM (inactive) in each case. Moreover, the GI50 in assay [13], in [14], in assay [15], in [16], in [17] and in assay [18] was > 100 µM (inactive) throughout.

The values are drawn from ChEMBL document CHEMBL1201862, “PubChem BioAssay data set” (2004).
